# “Also recorded” adds a separate entry of the source.
# Tests used:
# [1] = Basso-Beatty-Bresnahan (BBB) locomotor test after dorsal hemisection of the spinal cord; format: in vivo, rat; conditions: i.c.v. (50 mM, 0.25 μl/hour) or i.v. (260 mM, 10 μl/hour) for 4 weeks
# Procedure: To test the effects of inosine on spinal cord injury, the dorsal half of the spinal cord in rats was transected, severing the descending CST and other pathways. CST loss severely disrupted fine, skilled behaviors. Inosine was then administered either intra-cerebroventricularly (50 mM, 0.25 μl/hour) or intravenously (260 mM, 10 μl/hour) for 4 weeks. […] Complete transection of the corticospinal tract was verified histologically. The effectiveness of inosine was clinically relevant, since it avoids the risk of intracerebral infection.
# [2] = test system: corticospinal tract (CST) axons; test: BDA tracing of CST axons in sham-operated animals (no brain injury); format: in vivo, rat; conditions: sham surgery, 4 weeks treatment
# Procedure: In groups treated for four weeks after stroke, animals were re-anesthetized, the infusion needle and pump were removed, and a craniotomy was performed over the uninjured SMA. The anterograde tracer bioti-nylated dextran amine (BDA: Molecular Probes: 10% wt/vol in sterile saline) was injected stereotaxically at depths of 0.5, 1.0, and 2.0 mm below the cortical surface at 18 standardized points distributed over the sensorimotor cortex (70 nl per injection; Nano-ject, Drummond Scientific, Broomall, Pa.). Two weeks later, animals were anesthetized and perfused transcardially with 0.9% saline followed by 4% paraformaldehyde. The brain and spinal cord were dissected and post-fixed overnight in 4% paraformaldehyde, followed by 10% and 30% sucrose solutions over the next few days. Tissue was em-bedded in OCT Tissue Tek Medium (Sakura Finetek USA Inc., CA) and frozen on dry ice. […] Six to ten sections spanning a distance of 1.2 mm were examined and quantified for (a) BDA-labeled axon profiles ≧40 μm in length within the dorsal funiculus on the denervated side of the spinal cord (ipsilateral to the BDA injection and contralateral to the injury); (b) BDA+axons≧40 μm in length in the gray matter of the denervated side of the spinal cord, and (c) BDA+axons≧200 μm in length on the denervated side. […] Average numbers of axons were calculated and converted to axons per mm of spinal cord. […]
structure (smiles),measurement,setting,value
OC[C@H]1O[C@@H](n2cnc3c(O)ncnc32)[C@H](O)[C@@H]1O [inosine],performance on BBB test for general locomotor activity,[1],enhanced performance; also recorded: returned to near-normal level of performance
same,labeled CST axons in spinal grey matter ipsilateral to the labeled hemisphere,[2],77.5±9.0 axons/mm

# Reference: patent US8912144B2, “Method for treating stroke via administration of NEP1-40 and inosine” (Children's Medical Center Corporation, priority 2003, dated 2014)
